In patent US8889876B2, “Histone deacetylase inhibitors and uses thereof” (Jiangsu Hengyi Pharmaceutical Co., Ltd., priority 2008, dated 2014):

Tests used:
Assay type in all cases: cell-based
[1] = system: Colo320 human rectal cancer cells; test: CCK-8 proliferation inhibition, Colo320; conditions: Homo sapiens, COLO 320, CCK-8 method; for inhibition at 10 µM: compound concentration 10 μM; for inhibition at 100 µM: compound concentration 100 μM
Protocol: (§1) Detecting the inhibition rate of the compound concentrations of 100 μM and 10 μM to Hut78 T-cell Leukemia cell, Jurkat E6-1 human T-cell lymphoma, PANC-1 human pancreatic cancer cells, A549 human lung cancer cells, K562 human chronic myeloid leukemia cells, Hep3B2.1-7 human liver cancer cells, MDA-MB-435s human breast cancer cells, Colo320 human rectal cancer cells and PC-3 human prostate cancer using CCK-8 method.

[2] = system: Hep3B2.1-7 human liver cancer cells; test: CCK-8 proliferation inhibition, Hep3B2.1-7; conditions: Homo sapiens, Hep3B, CCK-8 method; for inhibition at 10 µM: compound concentration 10 μM; for inhibition at 100 µM: compound concentration 100 μM
Protocol: as §1

[3] = system: A549 human lung cancer cells; test: CCK-8 proliferation inhibition, A549; conditions: Homo sapiens, A549, CCK-8 method; for inhibition at 10 µM: compound concentration 10 μM; for inhibition at 100 µM: compound concentration 100 μM
Protocol: as §1

[4] = system: MDA-MB-435s human breast cancer cells; test: CCK-8 proliferation inhibition, MDA-MB-435s; conditions: Homo sapiens, MDA-MB-435S, CCK-8 method; for inhibition at 10 µM: compound concentration 10 μM; for inhibition at 100 µM: compound concentration 100 μM
Protocol: as §1

[5] = system: PC-3 human prostate cancer; test: CCK-8 proliferation inhibition, PC-3; conditions: Homo sapiens, CCK-8 method; for inhibition at 10 µM: compound concentration 10 μM; for inhibition at 100 µM: compound concentration 100 μM
Protocol: as §1

[6] = system: Jurkat E6-1 human T-cell lymphoma; test: CCK-8 proliferation inhibition, Jurkat E6-1; conditions: Homo sapiens; for inhibition at 10 µM: Jurkat E6.1, 10 μM; for inhibition at 100 µM: Jurkat E6.1, 100 μM
Protocol: as §1

[7] = system: PANC-1 human pancreatic cancer cells; test: CCK-8 proliferation inhibition, PANC-1; conditions: Homo sapiens; for inhibition at 10 µM: PANC-1, 10 μM; for inhibition at 100 µM: PANC-1, 100 μM
Protocol: as §1

[8] = system: K562 human chronic myeloid leukemia cells; test: CCK-8 proliferation inhibition, K562; conditions: Homo sapiens; for inhibition at 10 µM: K562, 10 μM; for inhibition at 100 µM: K562, 100 μM
Protocol: as §1

[9] = system: Hut78 T-cell Leukemia cell; test: CCK-8 proliferation inhibition, Hut78; conditions: Homo sapiens, read-out: Hut-78 (inhibition %); for inhibition at 10 µM: HuT78, 10 μM; for inhibition at 100 µM: HuT78, 100 μM
Protocol: as §1

SMILES | inhibition at 10 µM [1] [%] | inhibition at 100 µM [1] [%] | inhibition at 10 µM [2] [%] | inhibition at 100 µM [2] [%] | inhibition at 10 µM [3] [%] | inhibition at 100 µM [3] [%] | inhibition at 10 µM [4] [%] | inhibition at 100 µM [4] [%] | inhibition at 10 µM [5] [%] | inhibition at 100 µM [5] [%] | inhibition at 10 µM [6] [%] | inhibition at 100 µM [6] [%] | inhibition at 10 µM [7] [%] | inhibition at 100 µM [7] [%] | inhibition at 10 µM [8] [%] | inhibition at 100 µM [8] [%] | inhibition at 10 µM [9] [%] | inhibition at 100 µM [9] [%]
Cc1ccc(COC(=O)NCc2ccc(C(=O)Nc3ccncc3N)cc2)cc1 [V-10] | -5.5 | 59.2 | -7 | 57.5 | -16.9 | 45.7 | 8 | 79.1 | 23.7 | 56 | 27.2 | 93.3 | 16.9 | 19.7 | 53.6 | 87.2 | 15.5 | 66.6
COc1ccc(COC(=O)NCc2ccc(C(=O)Nc3ccncc3N)cc2)cc1 [V-12] | -1.8 | 86.4 | 5 | 90.4 | -5.9 | 38 | 14.2 | 94.5 | 29.7 | 89.3 | 36.4 | 96.3 | -1.8 | 34.9 | 56.9 | 94.5 | 17.5 | 83.6
Nc1ncccc1NC(=O)c1ccc(CNC(=O)OCc2ccc([N+](=O)[O-])cc2)cc1 [V-15, N-(2-amino-3-pyridyl)-4-[(4-nitrobenzyloxyacyl)aminomethyl]benzamide] | 2.6 | 4.1 | 22.3 | 43 | 15.3 | 12.9 | 30.6 | 42.4 | 21.9 | 18.8 | 18.6 | 26.3 | 24 | 21.1 | 20.4 | 32.3 | 28.5 | 24.6
Nc1ncccc1NC(=O)c1ccc(CNC(=O)OCc2ccc(F)cc2)cc1 [V-19, N-(2-amino-3-pyridyl)-4-[(4-fluorobenzyloxyacyl)aminomethyl]benzamide] | 0.9 | 34.3 | 21.5 | 69.8 | 18.3 | 57.1 | 27.5 | 89.1 | -1.9 | 48.5 | 19.1 | 77.8 | 26 | 36.8 | 25 | 65.1 | 19.8 | 54
Nc1cnccc1NC(=O)c1ccc(CNC(=O)OCc2ccc(F)cc2)cc1 [V-20] | -14.3 | 82.7 | 7.2 | 79.3 | -17.6 | 72.2 | 19.5 | 63.9 | 22.9 | 84.4 | 23.8 | 96.5 | -2.8 | 15.7 | 34 | 88.7 | 22 | 91.1
Nc1ncccc1NC(=O)c1ccc(CNC(=O)/C=C/c2ccccc2)cc1 [V-25, N-(2-amino-3-pyridyl)-4-(cinnamoylaminomethyl)benzamide] | 4.9 | 28.9 | 18.4 | 45.7 | 29.8 | 67.9 | 32.5 | 73.3 | 41.8 | 67.1 | 20.3 | 80.2 | 12 | 25.1 | 33.6 | 72.4 | 23.4 | 53.5
Cc1ccc(/C=C/C(=O)NCc2ccc(C(=O)Nc3cccnc3N)cc2)cc1 [V-27, N-(2-amino-3-pyridyl)-4-[(4-methylcinnamoyl)aminomethyl]benzamide] | 12.9 | 40.1 | 25.4 | 49.9 | 6.3 | 37.3 | 33 | 77 | 50.2 | 61 | 58.3 | 80.9 | 20.2 | 26.2 | 54.3 | 85.8 | 43 | 77
COc1ccc(/C=C/C(=O)NCc2ccc(C(=O)Nc3cccnc3N)cc2)cc1 [V-29, N-(2-amino-3-pyridyl)-4-[(4-methoxycinnamoyl)aminomethyl]benzamide] | 9.5 | 45.9 | 11 | 68.1 | 0 | 41.3 | 17 | 57.8 | 40.1 | 64.2 | 49.3 | 89.7 | 12.5 | 33.3 | 52.2 | 85.2 | 45.2 | 75.6
Nc1ncccc1NC(=O)c1ccc(CNC(=O)/C=C/c2ccc(F)cc2)cc1 [V-40, N-(2-amino-3-pyridyl)-4-[(4-fluorocinnamoyl)aminomethyl]benzamide] | 10 | 32.3 | -5 | 51.7 | 2.8 | 47.7 | 28.5 | 76.3 | 6.3 | 38.8 | 31.6 | 87.6 | 4.4 | 9.5 | 45 | 75 | 29.2 | 69.3
Nc1cnccc1NC(=O)c1ccc(CNC(=O)/C=C/c2cccnc2)cc1 [V-43] | 19.1 | 59.4 | 22.5 | 60.5 | 41.2 | 85.5 | 18.8 | 86.4 | 88 | 94.5 | 69.1 | 96.8 | 3.1 | 35.9 | 13.8 | 60.8 | 25.7 | 49.6
Nc1ncccc1NC(=O)c1ccc(CNC(=O)/C=C/c2ccc3ccccc3c2)cc1 [V-46, N-(2-amino-3-pyridyl)-4-(2-naphthylacryloylaminomethyl)benzamide] | 13.7 | -9 | 17.5 | -5 | 7.7 | 4.1 | 16.4 | 4.1 | -1.7 | -2.4 | 14.8 | 1.9 | 8.1 | 0.4 | 27.3 | 18.9 | 16.4 | 13.4
Nc1ncccc1NC(=O)c1ccc(CNC(=O)CCc2ccccc2)cc1 [V-48, N-(2-amino-3-pyridyl)-4-[(3-phenylpropionyl)aminomethyl]benzamide] | 2.9 | 17.9 | -14 | 20.5 | 3.9 | 9.8 | 10 | 26.6 | -16.4 | 14.8 | 9.7 | 61.9 | -2.2 | -1.8 | 20 | 57.2 | -0.4 | 47.4
